This assay concerns the target Sodium-dependent dopamine transporter (Rattus norvegicus, UniProt P23977). The experiment in a line: Affinity against cocaine binding site of dopamine transporter in rat striatum using [3H]2b as radioligand. The format is tissue-based.
Sequence of Sodium-dependent dopamine transporter (P23977 whole entry): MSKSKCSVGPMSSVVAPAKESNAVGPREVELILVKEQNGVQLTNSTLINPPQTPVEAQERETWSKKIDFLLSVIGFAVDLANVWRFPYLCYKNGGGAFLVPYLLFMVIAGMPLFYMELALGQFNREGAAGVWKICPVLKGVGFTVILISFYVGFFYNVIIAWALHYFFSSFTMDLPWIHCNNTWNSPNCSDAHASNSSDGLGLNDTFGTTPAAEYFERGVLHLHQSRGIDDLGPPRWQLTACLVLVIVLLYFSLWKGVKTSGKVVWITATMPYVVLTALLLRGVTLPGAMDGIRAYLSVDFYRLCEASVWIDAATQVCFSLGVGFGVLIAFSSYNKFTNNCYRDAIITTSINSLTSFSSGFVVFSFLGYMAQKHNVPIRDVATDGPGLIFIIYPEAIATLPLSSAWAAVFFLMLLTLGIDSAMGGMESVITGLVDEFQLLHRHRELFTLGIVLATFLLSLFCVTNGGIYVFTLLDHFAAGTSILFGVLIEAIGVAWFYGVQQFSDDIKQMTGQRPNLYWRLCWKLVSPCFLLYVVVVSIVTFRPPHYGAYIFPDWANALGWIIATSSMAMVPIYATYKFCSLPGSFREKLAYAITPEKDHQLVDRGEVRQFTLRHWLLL
For orientation: IC50 means the concentration at which inhibition is half-maximal. The compound `COC(=O)C1C2CC[C@H](C[C@H]1c1ccc(C)cc1)N2C` (some centres not stated) showed an IC50 of 1.71 nM.

Compound `COC(=O)[C@@H]1C2CC[C@H](C[C@@H]1c1ccc(C(F)(F)F)cc1)N2C` registered an IC50 of 13.1 nM.

The compound `CCC(=O)Nc1ccc([C@H]2C[C@H]3CCC([C@H]2C(=O)OC)N3C)cc1` gave an IC50 of 68 nM.

`COC(=O)[C@@H]1C2CC[C@H](C[C@@H]1c1cccs1)N2C` came in with a half-inhibitory concentration (IC50) of 257 nM.

In the case of `COC(=O)[C@@H]1C2CC[C@H](C[C@@H]1c1ccc(N=[N+]=[N-])cc1)N2C`, the IC50 stood at 2.12 nM.

Compound `CCOC(=O)Nc1ccc([C@H]2C[C@H]3CCC([C@H]2C(=O)OC)N3C)cc1` showed an IC50 of 316 nM.

For the compound `COC(=O)[C@@H]1C2CC[C@H](C[C@@H]1c1ccc(NC(C)=O)cc1)N2C`, the IC50 is 64.2 nM.

As for `COC(=O)[C@@H]1C2CC[C@H](C[C@@H]1c1ccccc1)N2C`, the IC50 came to 23 nM.

For the compound `COC(=O)C1C2CC[C@H](C[C@@H]1c1ccc(I)cc1)N2C` (some centres not stated), the IC50 was 1.26 nM.

`COC(=O)[C@@H]1C2CC[C@H](C[C@@H]1c1ccc(N)cc1)N2C` displayed an IC50 of 24.8 nM.

`COC(=O)C1C2CC[C@H](C[C@H]1c1ccc(Br)cc1)N2C` (some centres not stated) came in with an IC50 of 1.81 nM.

The compound `COC(=O)C1C2CC[C@H](C[C@@H]1c1ccc(Cl)cc1)N2C` (some centres not stated) showed an IC50 of 1.17 nM.
